Legend:
[1] = test system: CNGA2:CNGA4:CNGB1b channels; design: method as in PMID 17665892; conditions: cited from earlier work
[2] = molecular target: T1, homotetrameric CNGA2 channels (Rattus norvegicus, UniProt Q00195); assay: Concentration-activation relationship of homotetrameric CNGA2 channels, inside-out patches of Xenopus oocytes; type: cell-based
T1 construct: expressed in transfected cells; host or cells: Xenopus laevis oocytes injected with cRNA; inside-out patches
T1 sequence (Q00195 1-664): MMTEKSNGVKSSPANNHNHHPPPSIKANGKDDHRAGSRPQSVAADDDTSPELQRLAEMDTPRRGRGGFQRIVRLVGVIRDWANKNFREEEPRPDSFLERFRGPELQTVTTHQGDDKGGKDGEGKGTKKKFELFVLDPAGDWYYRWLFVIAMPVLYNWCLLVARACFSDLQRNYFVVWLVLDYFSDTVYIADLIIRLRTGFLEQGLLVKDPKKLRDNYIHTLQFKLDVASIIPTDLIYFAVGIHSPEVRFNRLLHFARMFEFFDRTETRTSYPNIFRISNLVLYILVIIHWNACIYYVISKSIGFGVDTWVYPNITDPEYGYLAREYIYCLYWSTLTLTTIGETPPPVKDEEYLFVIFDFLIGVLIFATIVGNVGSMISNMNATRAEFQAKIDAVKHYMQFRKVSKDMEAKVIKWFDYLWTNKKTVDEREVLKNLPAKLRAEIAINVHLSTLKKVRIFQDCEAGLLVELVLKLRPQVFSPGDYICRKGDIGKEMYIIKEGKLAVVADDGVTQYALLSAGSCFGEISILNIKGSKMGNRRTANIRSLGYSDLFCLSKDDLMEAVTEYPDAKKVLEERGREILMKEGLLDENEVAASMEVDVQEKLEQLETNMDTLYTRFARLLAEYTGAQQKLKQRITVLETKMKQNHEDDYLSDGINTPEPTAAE
Procedure: (§1) For each cNMP derivative a complete concentration-activation relationship was recorded, and the data points were fitted with the Hill equation (equation 1) yielding the concentration of half maximum activation (EC50) and the Hill coefficient H (Fig. 1b,c).
(§2) The subunits CNGA2 (accession No. AF126808), CNGA4 (accession No. U12623) and CNGB1b (accession No. AF068572) of rat olfactory channels as well as mouse HCN2 channels (NM008226) were subcloned in front of the T7 promoter of pGEMHEnew. The respective cRNAs were produced by using the mMESSAGE mMACHINE T7 Kit (Ambion, Austin, TX).
(§3) Oocytes at stages IV and V were injected with 50–130 ng of cRNA encoding either CNGA2, CNGA2:CNGA4:CNGB1b (2:1:1 ratio) or HCN2 channels either manually of or by means of an injection robot (RoboInject®). The injected oocytes were incubated at 18 °C for up to 6 days in Barth’s solution containing (in mM) 84 NaCl, 1 KCl, 2.4 NaHCO3, 0.82 MgSO4, 0.41 CaCl2, 0.33 Ca(NO3)2, 7.5 TRIS, cefuroxime (4.0 µg × ml^−1), and penicillin/streptomycin (100 µg × ml^−1), pH 7.4.
(§4) Macroscopic currents were recorded from inside-out patches of the oocytes by using standard patch-clamp techniques. The patch pipettes were pulled from quartz tubing (P-2000, Sutter Instrument, Novato, USA) with an outer and inner diameter of 1.0 and 0.7 mm (VITROCOM, New Jersey, USA). The corresponding pipette resistance was 0.9–2.3 MΩ. The bath and pipette solution contained (in mM): 150 KCl, 1 EGTA, 5 Hepes (pH 7.4 with KOH) for CNG measurements. For HCN measurements the bath solution contained 100 mM KCl, 10 mM EGTA, 10 mM HEPES (pH 7.2) and 120 mM KCl, 10 mM HEPES, and 1.0 mM CaCl2 (pH 7.2) in the pipette. Recording was carried out at room temperature using an Axopatch 200B amplifier (Axon Instruments, Foster City, CA). Electrophysiology was controlled by the Patchmaster-software (HEKA Elektronik Dr. Schulze GmbH, Lambrecht, Germany). The sampling rate was 5 kHz and the filter implemented in the amplifier (4-pole Bessel) was set to 2 kHz. Measurements in HCN2 channels were generally started 3.5 min after patch excision to minimize channel run down during the measurement[14],[27],[70]. The solutions with the ligand concentrations to be tested were applied via a multi-barrel device to the patches with a flow rate of 0.8 to 1.2 ml/min.
(§5) I is the actual current amplitude and Imax the maximum current amplitude at a saturating cNMP concentration specified for each cNMP and channel. EC50 is the cNMP concentration generating the half maximum current and H the Hill coefficient.

[3] = molecular target: T2, heterotetrameric CNGA2:CNGA4:CNGB1b channels (Rattus norvegicus, UniProt A0A8I5ZN27+Q00195+Q64359); assay: Concentration-activation relationship of heterotetrameric CNGA2:CNGA4:CNGB1b channels, inside-out patches of Xenopus oocytes; type: cell-based; conditions: heterotetrameric CNGA2:CNGA4:CNGB1b channels, mean; for EC50: late current at +10 mV
T2 construct: expressed in transfected cells; host or cells: Xenopus laevis oocytes co-injected with cRNAs (2:1:1); inside-out patches
T2 sequence (Q64359 whole entry, one chain of several): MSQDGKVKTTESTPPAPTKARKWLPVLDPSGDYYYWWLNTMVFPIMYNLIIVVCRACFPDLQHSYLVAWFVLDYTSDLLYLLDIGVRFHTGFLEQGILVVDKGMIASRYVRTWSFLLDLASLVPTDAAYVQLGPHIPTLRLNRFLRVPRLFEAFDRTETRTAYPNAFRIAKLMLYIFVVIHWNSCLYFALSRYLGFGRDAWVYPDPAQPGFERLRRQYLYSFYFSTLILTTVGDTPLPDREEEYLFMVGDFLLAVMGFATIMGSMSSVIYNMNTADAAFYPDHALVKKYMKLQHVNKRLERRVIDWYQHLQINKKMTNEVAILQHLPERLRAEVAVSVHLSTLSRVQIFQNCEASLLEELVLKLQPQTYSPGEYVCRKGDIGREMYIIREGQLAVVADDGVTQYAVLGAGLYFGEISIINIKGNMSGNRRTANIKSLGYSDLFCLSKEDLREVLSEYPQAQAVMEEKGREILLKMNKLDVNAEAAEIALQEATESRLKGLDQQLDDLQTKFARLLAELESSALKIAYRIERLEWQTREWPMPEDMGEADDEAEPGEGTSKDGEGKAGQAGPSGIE
T2 sequence (A0A8I5ZN27 1-858 isoform A0A8I5ZN27-2, one chain of several): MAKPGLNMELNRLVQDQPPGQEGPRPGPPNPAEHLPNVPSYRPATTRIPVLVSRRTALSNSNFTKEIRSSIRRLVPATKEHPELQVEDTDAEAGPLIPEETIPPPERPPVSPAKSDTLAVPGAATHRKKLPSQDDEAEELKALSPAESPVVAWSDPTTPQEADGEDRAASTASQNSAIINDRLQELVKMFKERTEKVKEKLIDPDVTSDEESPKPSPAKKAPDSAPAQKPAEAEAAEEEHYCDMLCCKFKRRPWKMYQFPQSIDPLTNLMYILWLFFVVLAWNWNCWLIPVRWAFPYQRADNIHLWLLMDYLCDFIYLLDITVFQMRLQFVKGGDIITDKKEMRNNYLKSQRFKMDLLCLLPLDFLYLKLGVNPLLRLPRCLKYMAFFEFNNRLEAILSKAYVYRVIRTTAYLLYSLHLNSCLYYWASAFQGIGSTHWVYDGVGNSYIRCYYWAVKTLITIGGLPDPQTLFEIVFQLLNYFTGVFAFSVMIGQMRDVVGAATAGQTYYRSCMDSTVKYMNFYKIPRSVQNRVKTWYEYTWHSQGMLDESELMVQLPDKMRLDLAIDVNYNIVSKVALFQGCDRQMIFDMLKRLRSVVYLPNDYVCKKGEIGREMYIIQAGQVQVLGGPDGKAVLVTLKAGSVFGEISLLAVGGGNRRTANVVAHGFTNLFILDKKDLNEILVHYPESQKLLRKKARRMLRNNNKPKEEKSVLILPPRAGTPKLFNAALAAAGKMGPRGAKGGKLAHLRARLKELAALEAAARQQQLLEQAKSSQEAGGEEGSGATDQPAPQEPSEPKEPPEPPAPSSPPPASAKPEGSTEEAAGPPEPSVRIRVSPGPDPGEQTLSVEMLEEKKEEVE
Procedure: as §1, §2, §3, §4, §5

CNGA2 channels = molecular target: T3, CNGA2 channels (Rattus norvegicus, UniProt Q00195); assay: Activation and deactivation kinetics by concentration jumps, CNGA2 channels; type: cell-based
T3 construct: expressed in transfected cells; host or cells: Xenopus laevis oocytes injected with cRNA; inside-out patches
T3 sequence (Q00195 1-664): T1 sequence (Q00195 1-664)
Source text: (§6) We applied concentration jumps from zero to a defined level and back to zero, yielding the time constants τa and τd, respectively (c.f. Methods section). If the enhancement of the apparent affinity is caused by solely accelerating the binding rate, τa would be decreased and τd would be unaffected. Conversely, if the hydrophobic alkyl chain enhances the apparent affinity by solely decelerating the unbinding rate, τd would be increased and τa could be increased preferentially at lower concentrations.
(§7) In experiments designed to record activation and deactivation kinetics in CNG channels, theta-glass pipettes were used in which one barrel contained control solution and the other barrel the test solution supplemented with the ligand. The theta-glass pipette was mounted on a piezo actuator which was controlled by the computer controlling the voltage protocols. The effective switch time of the solution exchange, t10–90, determined by an open patch pipette and different solutions in the barrels, was negligible compared to the time courses of activation and deactivation to be considered. […]
(§8) The speed of activation and deactivation was determined by fitting the respective time courses with single exponentials yielding the time constant τ. […] To quantify the time course at a given cNMP concentration for a number of measurements τwm and τ were treated equally. […]

[4] = molecular target: T4, CNGA2:CNGA4:CNGB1b channels (Rattus norvegicus, UniProt A0A8I5ZN27+Q00195+Q64359); assay: Activation and deactivation kinetics by concentration jumps, CNGA2:CNGA4:CNGB1b channels; type: cell-based
T4 construct: expressed in transfected cells; host or cells: Xenopus laevis oocytes co-injected with cRNAs (2:1:1); inside-out patches
T4 sequence (Q64359 whole entry, one chain of several): as the sequence (Q64359 whole entry, one chain of several) above
T4 sequence (A0A8I5ZN27 1-858 isoform A0A8I5ZN27-2, one chain of several): as the sequence (A0A8I5ZN27 1-858 isoform A0A8I5ZN27-2, one chain of several) above
Source text: as §6, §7, §8

[5] = molecular target: T5, homotetrameric HCN2 channels (Mus musculus, UniProt O88703); assay: Concentration-activation relationship of homotetrameric HCN2 channels, inside-out patches of Xenopus oocytes; type: cell-based; conditions: homotetrameric HCN2 channels, mean; for EC50: pre-activation at -130 mV, instantaneous current at -100 mV
T5 construct: expressed in transfected cells; host or cells: Xenopus laevis oocytes injected with cRNA; inside-out patches
T5 sequence (O88703 1-863): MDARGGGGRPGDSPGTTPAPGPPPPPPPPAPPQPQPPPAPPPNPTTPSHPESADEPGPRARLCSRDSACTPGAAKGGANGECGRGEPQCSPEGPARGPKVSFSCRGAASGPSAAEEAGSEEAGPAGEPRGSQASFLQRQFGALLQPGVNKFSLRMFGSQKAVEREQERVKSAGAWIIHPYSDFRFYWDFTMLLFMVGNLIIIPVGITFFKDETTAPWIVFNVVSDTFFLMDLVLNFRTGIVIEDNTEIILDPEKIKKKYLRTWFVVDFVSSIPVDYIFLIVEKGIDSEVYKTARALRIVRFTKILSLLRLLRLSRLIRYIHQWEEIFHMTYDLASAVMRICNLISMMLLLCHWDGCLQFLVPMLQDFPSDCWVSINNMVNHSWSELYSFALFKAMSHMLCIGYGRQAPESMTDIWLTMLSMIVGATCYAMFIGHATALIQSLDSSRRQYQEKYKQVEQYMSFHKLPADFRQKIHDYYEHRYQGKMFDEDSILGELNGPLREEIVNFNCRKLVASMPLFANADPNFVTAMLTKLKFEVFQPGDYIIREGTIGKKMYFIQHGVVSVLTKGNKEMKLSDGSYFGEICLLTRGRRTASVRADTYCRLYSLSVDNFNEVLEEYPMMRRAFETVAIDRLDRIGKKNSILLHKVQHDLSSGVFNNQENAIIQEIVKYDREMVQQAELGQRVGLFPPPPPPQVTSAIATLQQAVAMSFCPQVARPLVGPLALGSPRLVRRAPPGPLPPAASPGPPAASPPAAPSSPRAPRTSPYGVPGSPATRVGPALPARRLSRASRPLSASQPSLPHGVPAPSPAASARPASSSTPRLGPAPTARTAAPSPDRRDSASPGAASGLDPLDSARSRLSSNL
Procedure: as §2
as §3, with “The oocytes were exposed to collagenase A (3 mg/ml; Roche, Grenzach-Wyhlen, Germany) for 105 min in Ca^2+-free Barth’s solution containing (in mM) 82.5 NaCl, 2 KCl, 1 MgCl2 2, and 5 Hepes, pH 7.4. Oocytes” for “Oocytes”
as §4, §5

[6] = homotetrameric CNGA2 channels, late current at +10 mV, mean
[7] = homotetrameric CNGA2 channels, mean

| Compound | EC50 [2, 6] [nM] | H (Hill coefficient) [2, 7] | EC50 [3] [nM] | H (Hill coefficient) [3] | activation time constant τa compared to cGMP (1G) (CNGA2 channels; at concentrations lower than 1 µM) | deactivation compared to the effect with CNGA2 channels ([4]; 10 µM) | activation time constant τa ([4]; low concentrations) | H (Hill coefficient) [5] | EC50 [5] [nM] | EC50 ([2]; CNGA2 channels, numeric mean values of box plots (Fig. 2a,b, Fig. 3) and text) [nM] | EC50 [1] [nM] | deactivation time constant τd compared to cGMP (1G) (CNGA2 channels; all tested concentrations) |
| --- | --- | --- | --- | --- | --- | --- | --- | --- | --- | --- | --- | --- |
| Nc1nc2c(nc(Sc3ccc(Cl)cc3)n2C2O[C@@H]3COP(=O)(O)O[C@H]3[C@H]2O)c(=O)[nH]1 (stereo in doubt) [8-pCPT-cGMP] |  |  |  |  |  |  |  |  |  |  | 73 |  |
| CC(=O)NCCCCCCCCCCSc1nc2c(N)ncnc2n1C1OC2COP(=O)(O)OC2C1O (stereo not shown) [7A, 8-(Ac)ADT-cAMP] | 2300 | 2.4 | 470 | 2.7 |  |  |  | 1.5 | 14.6 |  |  |  |
| CC(=O)NCC(=O)NCCSc1nc2c(N)ncnc2n1C1OC2COP(=O)(O)OC2C1O (stereo not shown) [10A, 8-(Ac)AGET-cAMP] | 34200 | 2.1 | 6600 | 2.2 |  |  |  | 1.5 | 96.7 | 34300 |  |  |

More lines, in order of falling EC50 [2, 6], values ahead:

| EC50 [2, 6] [nM] | H (Hill coefficient) [2, 7] | EC50 [3] [nM] | H (Hill coefficient) [3] | activation time constant τa compared to cGMP (1G) (CNGA2 channels; at concentrations lower than 1 µM) | deactivation compared to the effect with CNGA2 channels ([4]; 10 µM) | activation time constant τa ([4]; low concentrations) | H (Hill coefficient) [5] | EC50 [5] [nM] | EC50 ([2]; CNGA2 channels, numeric mean values of box plots (Fig. 2a,b, Fig. 3) and text) [nM] | Compound | EC50 [1] [nM] | deactivation time constant τd compared to cGMP (1G) (CNGA2 channels; all tested concentrations) |
| --- | --- | --- | --- | --- | --- | --- | --- | --- | --- | --- | --- | --- |
| 24900 | 2.4 | 6000 | 2.2 |  |  |  | 0.9 | 144 |  | CC(=O)NCCOCCOCCSc1nc2c(N)ncnc2n1C1OC2COP(=O)(O)OC2C1O (stereo not shown) [8A, 8-(Ac)APT-cAMP] |  |  |
| 80 | 2.7 | 230 | 2.0 | larger | slowed to a much lower degree | not affected |  |  |  | CC(=O)NCCCCCCSc1nc2c(=O)[nH]c(N)nc2n1C1OC2COP(=O)(O)OC2C1O (stereo not shown) [5G, 8-(Ac)AHT-cGMP] |  | approximately an order of magnitude increased |

— article PMC6175941, “Hydrophobic alkyl chains substituted to the 8-position of cyclic nucleotides enhance activation of CNG and HCN channels by an intricate enthalpy - entropy compensation” (Scientific Reports, 2018)
